From patent US10752604B2, “C-glucoside derivative containing fused phenyl ring or pharmaceutically acceptable salt thereof, process for preparing same, and pharmaceutical composition comprising same” (Je II Pharmaceutical Co., Ltd., priority 2016, dated 2020) come the findings set out here.

A word on the pIC50: it is −log10 of the IC50, conventionally taken in molar units. Low values mean a high IC50, high ones a low IC50.

pIC50: −log10 of the molar value.

One experiment deals with human SGLT1 (Homo sapiens (Human), UniProt P13866). Briefly: Inhibitory effect on human SGLT1 activity (14C-AMG uptake in CHO cells expressing hSGLT1). The experiment is classed as cell-based. To be noted: 14C-AMG transport, CHO cells expressing hSGLT1, 2 hours. The text has this: (§1) Human SGLT1 (hSGLT1), human SGLT2 (hSGLT2) genes were amplified from a human marathon-ready cDNA library (Clontech)) by means of an PCR method, after which resulting amplified sequences were combined with a pcDNA 3.1(+) vector, which was a mammalian expression vector, so as to prepare recombinant expression vectors pcDNA3.1(+)/hSGLT1, pcDNA3.1(+)/hSGLT2. Resulting recombinant expression vectors were transformed into Chinese Hamster Ovarian cells, after which stably transformed clones were selected by means of a colony picking method by using a resistance to G418, a selective marker included in the vector. Out of selected clones, clones for expressing hSGLT1 and hSGLT2 were selected based on activity in analysis of ^14C-α-methyl-D-glucopyranoside (^14C-AMG) transport.
Sequence of human SGLT1 (P13866 whole entry): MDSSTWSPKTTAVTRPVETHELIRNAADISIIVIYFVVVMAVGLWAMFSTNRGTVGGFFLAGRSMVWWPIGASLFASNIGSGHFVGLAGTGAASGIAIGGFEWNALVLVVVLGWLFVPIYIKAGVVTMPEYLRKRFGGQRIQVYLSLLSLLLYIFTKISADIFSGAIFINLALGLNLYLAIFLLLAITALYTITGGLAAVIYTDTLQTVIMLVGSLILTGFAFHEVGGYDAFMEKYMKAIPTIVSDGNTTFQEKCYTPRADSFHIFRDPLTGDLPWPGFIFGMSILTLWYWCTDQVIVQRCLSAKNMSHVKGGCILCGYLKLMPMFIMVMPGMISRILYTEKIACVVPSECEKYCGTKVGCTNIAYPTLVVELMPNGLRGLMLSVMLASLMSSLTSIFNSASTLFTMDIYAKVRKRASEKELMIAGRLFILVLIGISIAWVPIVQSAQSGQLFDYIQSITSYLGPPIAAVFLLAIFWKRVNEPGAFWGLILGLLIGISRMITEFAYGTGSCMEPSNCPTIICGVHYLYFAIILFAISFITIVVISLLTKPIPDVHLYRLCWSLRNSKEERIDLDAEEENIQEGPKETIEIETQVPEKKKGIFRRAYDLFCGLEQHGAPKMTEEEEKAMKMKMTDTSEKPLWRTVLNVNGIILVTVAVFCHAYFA
To analyze a sodium-dependent glucose transport, cells for expressing hSGLT1 and hSGLT2 were seeded at 1×10^5 cells per well into a 96-well culture plate, after which resulting cells were cultured in an RPMI 1640 medium containing 10% fetal bovine serum (FBS). In 1 day after culture, the resulting cells were cultured in a pre-treatment buffer solution (10 mM HEPES, 5 mM tris, 140 mM choline chloride, 2 mM KCl, 1 mM CaCl2 and 1 mM MgCl2, pH 7.4) under 37° C./5% CO2 conditions for 10 minutes. Then, the resulting cells were cultured in a uptake buffer solution (10 mM HEPES, 5 mM tris, 140 mM NaCl, 2 mM KCl, 1 mM CaCl2, 1 mM MgCl2 and 1 mM AMGS pH 7.4) containing 14C-AMG (8 μM) and a compound of the present disclosure or a dimethyl sulfoxide (DMSO) vehicle under 37° C./5% CO2 conditions for 2 hours. After culture, the cells were washed twice with a washing buffer solution (a pre-treatment buffer solution containing 10 mM AMG at room temperature), after which a radiation thereof was measured by using a liquid scintillation counter. IC50 of each compound was measured according to a non-linear regression analysis by using SigmaPlot (Document Analytical Biochemistry 429: 70-75, Molecular and Cellular Biochemistry 280: 91-98, 2005). SGLT1/2 in-vitro assay results are shown in a following Table 1.

The next experiment concerns the target human SGLT2 (Homo sapiens (Human), UniProt P31639). Briefly: Inhibitory effect on human SGLT2 activity (14C-AMG uptake in CHO cells expressing hSGLT2). Format: cell-based. Conditions: 14C-AMG transport, CHO cells expressing hSGLT2, 2 hours.
Description: as §1
In 1 day after culture, the resulting cells were cultured in a pre-treatment buffer solution (10 mM HEPES, 5 mM tris, 140 mM choline chloride, 2 mM KCl, 1 mM CaCl2 and 1 mM MgCl2, pH 7.4) under 37° C./5% CO2 conditions for 10 minutes. Then, the resulting cells were cultured in a uptake buffer solution (10 mM HEPES, 5 mM tris, 140 mM NaCl, 2 mM KCl, 1 mM CaCl2, 1 mM MgCl2 and 1 mM AMGS pH 7.4) containing 14C-AMG (8 μM) and a compound of the present disclosure or a dimethyl sulfoxide (DMSO) vehicle under 37° C./5% CO2 conditions for 2 hours. After culture, the cells were washed twice with a washing buffer solution (a pre-treatment buffer solution containing 10 mM AMG at room temperature), after which a radiation thereof was measured by using a liquid scintillation counter.

Sequence of human SGLT2 (P31639 whole entry): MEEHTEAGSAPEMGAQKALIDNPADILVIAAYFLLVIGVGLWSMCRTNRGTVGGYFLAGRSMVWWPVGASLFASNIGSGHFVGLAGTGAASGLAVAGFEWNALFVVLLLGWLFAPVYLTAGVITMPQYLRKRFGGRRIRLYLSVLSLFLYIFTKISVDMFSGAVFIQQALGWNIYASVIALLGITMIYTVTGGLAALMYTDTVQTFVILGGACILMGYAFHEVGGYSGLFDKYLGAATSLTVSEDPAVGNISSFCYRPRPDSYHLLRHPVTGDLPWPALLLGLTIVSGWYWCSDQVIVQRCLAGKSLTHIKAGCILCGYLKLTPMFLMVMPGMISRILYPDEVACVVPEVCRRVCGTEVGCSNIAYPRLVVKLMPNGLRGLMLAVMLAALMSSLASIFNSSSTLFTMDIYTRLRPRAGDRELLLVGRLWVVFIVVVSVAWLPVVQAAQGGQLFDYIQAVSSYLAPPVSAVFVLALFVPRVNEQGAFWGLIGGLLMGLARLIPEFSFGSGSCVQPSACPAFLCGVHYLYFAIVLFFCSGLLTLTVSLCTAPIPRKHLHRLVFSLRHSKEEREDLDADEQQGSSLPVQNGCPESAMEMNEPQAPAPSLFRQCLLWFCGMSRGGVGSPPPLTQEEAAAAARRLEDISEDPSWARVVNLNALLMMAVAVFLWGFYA

In the case of `Cc1c(C2O[C@H](CO)C(O)[C@H](O)C2O)cc(Cc2ccc(C(C)C)cc2)c2c1CCC2` (stereo in doubt) [Example 7, (2R,3S,4R,5R,6S)-2-(hydroxymethyl)-6-(7-(4-isopropylbenzyl)-4-methyl-2,3-dihydro-1H-indene-5-yl)tetrahydro-2H-pyran-3,4,5-triol], the pIC50 at human SGLT1 was 6.53.

Consider `Cc1ccc(Cc2cc([C@@H]3O[C@H](CO)[C@@H](O)[C@H](O)[C@H]3O)c(CC(C)C)c3c2CCC3)cc1` [Example 64, (2R,3S,4R,5R,6S)-2-(hydroxymethyl)-6-(4-isobutyl-7-(4-methylbenzyl)-2,3-dihydro-1H-indene-5-yl)tetrahydro-2H-pyran-3,4,5-triol], for which the pIC50 on human SGLT1 was 6.29; against human SGLT2, 7.72.

`CSc1ccc(Cc2cc([C@@H]3O[C@H](CO)[C@@H](O)[C@H](O)[C@H]3O)c(C)c3c2CCC3)cc1` [Example 13]: the pIC50 was 7.82 against human SGLT1 and 8.92 at human SGLT2.

With `CCc1ccc(Cc2cc([C@@H]3O[C@H](CO)[C@@H](O)[C@H](O)[C@H]3O)c(CC(C)C)c3c2CCC3)cc1` [Example 65, (2S,3R,4R,5S,6R)-2-(7-(4-ethylbenzyl)-4-isobutyl-2,3-dihydro-1H-indene-5-yl)-6-(hydroxymethyl)tetrahydro-2H-pyran-3,4,5-triol], the results for the pIC50 against human SGLT1 and at human SGLT2 were 5.79 and 7.42, respectively.

As for `CCc1ccc(Cc2cc([C@@H]3O[C@H](CO)C(O)[C@H](O)C3O)c(C)c3c2CCC3)cc1` (stereo in doubt) [Example 5, (2S,3R,4R,5S,6R)-2-(7-(4-ethylbenzyl)-4-methyl-2,3-dihydro-1H-indene-5-yl)-6-(hydroxymethyl)tetrahydro-2H-pyran-3,4,5-triol], the pIC50 is 7.40 against human SGLT1 and 8.55 at human SGLT2.

Turning to `CCCc1ccc(Cc2cc([C@@H]3O[C@H](CO)C(O)[C@H](O)C3O)c(C)c3c2CCC3)cc1` (stereo in doubt) [Example 6, (2R,3S,4R,5R,6S)-2-(hydroxymethyl)-6-(4-methyl-7-(4-propylbenzyl)-2,3-dihydro-1H-indene-5-yl)tetrahydro-2H-pyran-3,4,5-triol], the pIC50 against human SGLT1 was 6.72.

With `COc1ccc(Cc2cc([C@@H]3O[C@H](CO)[C@@H](O)[C@H](O)[C@H]3O)c(C(C)C)c3c2CCC3)cc1` [Example 61, (2R,3S,4R,5R,6S)-2-(hydroxymethyl)-6-(4-isopropyl-7-(4-methoxybenzyl)-2,3-dihydro-1H-indene-5-yl)tetrahydro-2H-pyran-3,4,5-triol], the negative-log IC50 (pIC50) on human SGLT1 is 6.70; on human SGLT2, 8.69.

With `CCCCc1c([C@@H]2O[C@H](CO)[C@@H](O)[C@H](O)[C@H]2O)cc(Cc2ccc(OC)cc2)c2c1CCC2` [Example 57, (2S,3R,4R,5S,6R)-2-(4-butyl-7-(4-methoxybenzyl)-2,3-dihydro-1H-indene-5-yl)-6-(hydroxymethyl)tetrahydro-2H-pyran-3,4,5-triol], the pIC50 is 6.43 at human SGLT1 and 8.23 against human SGLT2.

For `Cc1c([C@@H]2O[C@H](CO)[C@@H](O)[C@H](O)[C@H]2O)cc(Cc2ccc(Cl)cc2)c2c1CCC2` [Example 16, (2S,3R,4R,5S,6R)-2-(7-(4-chlorobenzyl)-4-methyl-2,3-dihydro-1H-indene-5-yl)-6-(hydroxymethyl)tetrahydro-2H-pyran-3,4,5-triol], on human SGLT1, the negative-log IC50 (pIC50) is 7.84.

Take `CCOc1ccc(Cc2cc([C@@H]3O[C@H](CO)[C@@H](O)[C@H](O)[C@H]3O)c(C)c3c2CCC3)cc1` [Example 2, (2S,3R,4R,5S,6R)-2-(7-(4-ethoxybenzyl)-4-methyl-2,3-dihydro-1H-indene-5-yl)-6-(hydroxymethyl)tetrahydro-2H-pyran-3,4,5-triol]: the pIC50 at human SGLT1 is 7.12; at human SGLT2 it was 8.52.

Turning to `COc1ccc(Cc2cc([C@@H]3O[C@H](CO)[C@@H](O)[C@H](O)[C@H]3O)c(C)c3c2CCC3)cc1` [Example 1, (2R,3S,4R,5R,6S)-2-(hydroxymethyl)-6-(7-(4-methoxybenzyl)-4-methyl-2,3-dihydro-1H-indene-5-yl)tetrahydro-2H-pyran-3,4,5-triol], the pIC50 is 8.04 at human SGLT1 and 8.89 on human SGLT2.

In the case of `C=Cc1ccc(Cc2cc([C@@H]3O[C@H](CO)[C@@H](O)[C@H](O)[C@H]3O)c(C)c3c2OCC3)cc1` [Example 34, (2R,3S,4R,5R,6S)-2-(hydroxymethyl)-6-(4-methyl-7-(4-vinylbenzyl)-2,3-dihydrobenzofuran-5-yl)tetrahydro-2H-pyran-3,4,5-triol], on human SGLT1, the negative-log IC50 (pIC50) is 6.53.

Regarding `Cc1ccc([C@@H]2O[C@H](CO)[C@@H](O)[C@H](O)[C@H]2O)cc1Cc1ccc(-c2ccc(F)cc2)s1` [Canagliflozin, reference compound], the negative logarithm of the IC50 (pIC50) on human SGLT1 is 6.26; at human SGLT2 it was 8.31.

As for `CCc1c([C@@H]2O[C@H](CO)[C@@H](O)[C@H](O)[C@H]2O)cc(Cc2ccc(C)cc2)c2c1CCC2` [Example 41, (2S,3R,4R,5S,6R)-2-(4-ethyl-7-(4-methylbenzyl)-2,3-dihydro-1H-indene-5-yl)-6-(hydroxymethyl)tetrahydro-2H-pyran-3,4,5-triol], the figures for the pIC50 against human SGLT1 and against human SGLT2 were 7.38 and 8.43, respectively.

For the molecule `CCCc1c([C@@H]2O[C@H](CO)[C@@H](O)[C@H](O)[C@H]2O)cc(Cc2ccc(OC)cc2)c2c1CCC2` [Example 52, (2R,3S,4R,5R,6S)-2-(hydroxymethyl)-6-(7-(4-methoxybenzyl)-4-propyl-2,3-dihydro-1H-indene-5-yl)tetrahydro-2H-pyran-3,4,5-triol], the pIC50 is 6.63 against human SGLT1 and 8.04 at human SGLT2.

As to `CCCCc1c([C@@H]2O[C@H](CO)[C@@H](O)[C@H](O)[C@H]2O)cc(Cc2ccc(C)cc2)c2c1CCC2` [Example 58, (2S,3R,4R,5S,6R)-2-(4-butyl-7-(4-methylbenzyl)-2,3-dihydro-1H-indene-5-yl)-6-(hydroxymethyl)tetrahydro-2H-pyran-3,4,5-triol], the negative logarithm of the IC50 (pIC50) at human SGLT1 was 6.54; on human SGLT2, 7.92.

On human SGLT1, `Cc1c([C@@H]2O[C@H](CO)C(O)[C@H](O)C2O)cc(Cc2ccc(OC(C)C)cc2)c2c1CCC2` (stereo in doubt) [Example 3, (2R,3S,4R,5R,6S)-2-(hydroxymethyl)-6-(7-(4-isopropoxybenzyl)-4-methyl-2,3-dihydro-1H-indene-5-yl)tetrahydro-2H-pyran-3,4,5-triol] had a pIC50 of 6.85.

As for `CCc1c([C@@H]2O[C@H](CO)[C@@H](O)[C@H](O)[C@H]2O)cc(Cc2ccc(OC)cc2)c2c1CCC2` [Example 42, (2S,3R,4R,5S,6R)-2-(4-ethyl-7-(4-methoxybenzyl)-2,3-dihydro-1H-indene-5-yl)-6-(hydroxymethyl)tetrahydro-2H-pyran-3,4,5-triol], the pIC50 against human SGLT1 was 7.22; on human SGLT2, 8.56.

With `CCCc1c([C@@H]2O[C@H](CO)[C@@H](O)[C@H](O)[C@H]2O)cc(Cc2ccc(C)cc2)c2c1CCC2` [Example 53, (2R,3S,4R,5R,6S)-2-(hydroxymethyl)-6-(7-(4-methylbenzyl)-4-propyl-2,3-dihydro-1H-indene-5-yl)tetrahydro-2H-pyran-3,4,5-triol], the pIC50 was 7.02 on human SGLT1 and 8.74 on human SGLT2.
